# Tests used:
# [1] = system: HeLa cells; experiment: N-ethylmaleimide induced cell vesicle production time course; assay type: cell-based, human; details: 2 mM NEM in 1×DPBS; 1 h, 3 h, 5 h, 8 h, 24 h
# Procedure: Protocol for N-ethylmaleimide induced cell vesicle production: HeLa cells were plated at 70% confluency (6×10^6 cells/100 mm cell culture plate) and incubated for 4 h at 37° C. and 5% CO2. Media was removed and cells were washed three times with 10 mL of 1×DPBS. […] Cells were imaged using a standard inverted light microscope and DPBS solution containing ICVs were collected, isolated, and analyzed by dynamic light scattering (DLS) for size.
# Protocol for nano- and microscale induce cell vesicle isolation: Cells and debris were removed by centrifugation at 1200 rpm for 5.5 min, repeated three times, each time collecting supernatant into a clean tube. Then, mICVs were isolated from the supernatant by centrifugation at 16,000×g for 10 min. After the first spin, supernatant was collected for nICV isolation while micro ICV pellets were washed with 1×DPBS. This was repeated two additional times, discarding supernatant and washing the mICV pellet with 1×DPBS. nICVs were isolated using 100 kDa Amicon® ultrafiltration at 3300×g for 15 min, repeated three times with 1×DPBS washes. Final mICVs and nICVs collected were suspended in 100 uL 1×DPBS and then characterized.
# (§1) Characterization of mICVs and nICVs: mICVs and nICVs were imaged using a bright field microscope and inverted light microscope. The sizing of produced ICVs were measured by using dynamic light scattering (DLS). […]
# [2] = system: stock AAV; experiment: Transduction of NEM-treated stock AAV; assay type: cell-based, AAV2
# [3] = system: AAV isolate from lysate; experiment: Transduction of NEM-treated AAV from producer cell lysate; assay type: cell-based, AAV2
# [4] = system: E.G7-OVA cells; experiment: Tumor challenge study after vaccination; assay type: in vivo, C57BL/6 mice; details: for tumor growth: s.c. vaccination plus booster, 300,000 E.G7-OVA cells s.c.; for survival: tumor challenge
# Procedure: Tumor challenge study. 12 wk.-old C57BL/6 mice (Charles River Laboratories, Wilmington, MA) were vaccinated by s.c. injection with DPBS, OVA protein, SIINFEKL peptide, SIINFEKL-presenting BDMCs, or SIINFEKL-presenting BMDC mICVs. With the exception of the control (DPBS) group, each group received vaccinations that were equivalent to a dosage of 100 μL of 50 μM SIINFEKL as quantified by CPRG assay. Vaccinations were given twice 14 days apart. 7 days after the second injection, mice were injected s.c. with 300,000 E.G7-OVA cells in the right flank. Tumor growth was monitored by measuring the tumor size with calipers every 48 h.
# Mice received a single vaccination followed by a booster vaccination two weeks later). Seven days after completion of a vaccination schedule. mice were challenged with E.G7-OVA cells and tumor growth was assessed over four weeks. FIG. 72 provides images from Day 30 of the tumor challenge with mice by vaccine category. […] The foregoing tumor challenge result indicates promise for use of antigenic ICVs as effective cancer vaccines.
# [5] = system: HeLa cells; experiment: AlPcS2A photoinitiated induced cell vesicle production (670 nm laser); assay type: cell-based, human; details: 1 ug/mL for 24 h then light, vs light alone
# Procedure: Protocol for Photoinitiated induced cell vesicle production: HeLa cells were plated at 70% confluency (6×10^6 cells/100 mm cell culture plate) and incubated for 4 h at 37° C. and 5% CO2. Cells were then imaged to confirm adherence to the plate and, in the dark, media was changed to media containing 1 ug/mL of the photosensitizer aluminum disulfonated phthalocyanine (AlPcS2A) (10 mL of photosensitizer media per 100 mm each plate). Plates were wrapped in tinfoil and allowed to incubate for 24 h at 37° C. and 5% CO2. In the dark, the photosensitive media was removed and cells were washed three times with 10 mL of 1×DPBS. Then, 6 mL of 1×DPBS was added to each 100 mm plate and the plates were subjected to a 670 nm laser for varying time doses (10 min, 5 min, 2.5 min, 1.25 min). Cells were imaged using a standard inverted light microscope, and the DPBS solution containing ICVs was collected. 6 mL of fresh 1×DPBS was added to each 100 mm plate and the plates were incubated at 37° C. and 5% CO2 for 18 h to investigate ICV formation effects over time. Cells were imaged using a standard inverted light microscope and the DPBS solution containing ICVs was collected. […]
# as §1
compound,measurement,setting,value
"CCN1C(=O)C=CC1=O [NEM, N-ethylmaleimide]",formation of nICVs,[1],induced the formation of nICVs at each time point
same,stock AAV transduction efficiency,[2]; NEM incubation 10 minutes,reducing the transduction efficiency
same,stock AAV transduction,[2]; NEM incubation 2 hours,almost no transduction
same,transduction of AAV isolate from lysate,[3]; NEM exposure 8 hours vs 0-minute timepoint,about half the transduction
same,transduction of AAV isolate from lysate,[3]; NEM exposure up to 4 hours,only a minimal drop in transduction
OVA: OVA protein vaccination control,tumor growth,[4],rapidly developed tumors
same,survival,[4],died prior to day 35
SIINFEKL [antigen peptide vaccination control],tumor growth,[4],rapidly developed tumors
same,survival,[4],died prior to day 35
aluminum disulfonated phthalocyanine [AlPcS2A],yield of nICVs and mICVs,[5],greatly increased the yield of nICVs and mICVs

# Reference: patent US12296023B2, “Chemically and photochemically initiated cell membrane blebbing to induce cell vesicle production, modifications thereof, and uses thereof” (The Regents of the University of California, priority 2018, dated 2025)
